Experimental data taken from US20220396586A1, “THIAZOLE CARBOXAMIDE COMPOUNDS AND USE THEREOF FOR THE TREATMENT OF MYCOBACTERIAL INFECTIONS” (THE GLOBAL ALLIANCE FOR TB DRUG DEVELOPMENT, INC., priority 2019, published 2022).
≈ marks a conversion by molar mass, not a printed value.

Experiments:
M. ab_ATCC = assay: MIC against Mycobacterium abscessus (M. ab_ATCC, MHII), procedure of Franz 2017; type: cell-based; conditions: Mycobacteroides abscessus, Mycobacterium abscessus ATCC
Text: The procedure described in Franz 2017 was used to generate the data shown in column 2 of Table 1.

M. tb H37Rv = assay: MIC determination against M. tb H37Rv (MIC-MABA); type: cell-based, Mycobacterium tuberculosis; conditions: Mycobacterium tuberculosis, H37RV, 240 h, read-out: M. tb H37Rv: MIC-MABA, M. tb H37Rv; 7H9 broth; 10 days exposure; MIC = lowest concentration inhibiting fluorescence by 90%

In the case of `C[Si]1(C)CCCC(NC(=O)c2cc3sc(-c4ccccn4)nc3[nH]2)CC1` (centres unmarked) [MPL-364, N-(1,1-dimethylsilepan-4-yl)-2-(2-pyridyl)-4H-pyrrolo[2,3-d]thiazole-5-carboxamide], the MIC (M. ab_ATCC) is reported as > 64 mg/L and the MIC (M. tb H37Rv) is reported as 0.423 mg/L (≈ 1.1 µM).
With `C[Si]1(C)CCCC(NC(=O)c2cc3sc(-c4cccnc4)nc3[nH]2)CC1` (centres unmarked) [MPL-365, N-(1,1-dimethylsilepan-4-yl)-2-(3-pyridyl)-4H-pyrrolo[2,3-d]thiazole-5-carboxamide] the MIC (M. ab_ATCC) was > 64 mg/L and the MIC (M. tb H37Rv) was 0.125 mg/L (≈ 0.325 µM).
In the case of `C[Si]1(C)CCCC(NC(=O)c2cc3sc(-c4ccccc4)nc3[nH]2)CCC1` [MPL-369, N-(1,1-dimethylsilocan-5-yl)-2-phenyl-4H-pyrrolo[2,3-d]thiazole-5-carboxamide], the MIC (M. ab_ATCC) is reported as > 64 mg/L and the MIC (M. tb H37Rv) is reported as 0.031 mg/L (≈ 0.078 µM).
For `C[Si]1(C)CCC(NC(=O)c2cc3sc(-c4ccncc4)nc3[nH]2)CC1` [MPL-370, N-(1,1-dimethylsilinan-4-yl)-2-(4-pyridyl)-4H-pyrrolo[2,3-d]thiazole-5-carboxamide], the MIC (M. ab_ATCC) was > 64 mg/L and the MIC (M. tb H37Rv) was 0.574 mg/L (≈ 1.55 µM).
With `Cc1ccccc1-c1nc2[nH]c(C(=O)NC3CC[Si](C)(C)CC3)cc2s1` [MPL-371, N-(1,1-dimethylsilinan-4-yl)-2-(o-tolyl)-4H-pyrrolo[2,3-d]thiazole-5-carboxamide] the MIC (M. ab_ATCC) was > 64 mg/L and the MIC (M. tb H37Rv) was 0.041 mg/L (≈ 0.107 µM).
`COc1ccccc1-c1nc2[nH]c(C(=O)NC3CC[Si](C)(C)CC3)cc2s1` [MPL-372, N-(1,1-dimethylsilinan-4-yl)-2-(2-methoxyphenyl)-4H-pyrrolo[2,3-d]thiazole-5-carboxamide] was tested, and the MIC (M. ab_ATCC) was > 64 mg/L and the MIC (M. tb H37Rv) was 0.138 mg/L (≈ 0.345 µM).
`C[Si]1(C)CCC(NC(=O)c2cc3sc(-c4ccccc4F)nc3[nH]2)CC1` [MPL-373, N-(1,1-dimethylsilinan-4-yl)-2-(2-fluorophenyl)-4H-pyrrolo[2,3-d]thiazole-5-carboxamide] was tested, and the MIC (M. ab_ATCC) was 6 mg/L (≈ 15.5 µM) and the MIC (M. tb H37Rv) was 0.084 mg/L (≈ 0.217 µM).
In the case of `COc1nc2[nH]c(C(=O)NC3CC[Si]4(CCCC4)CC3)cc2s1` [MPL-393, 2-methoxy-N-(5-silaspiro[4.5]decan-8-yl)-4H-pyrrolo[2,3-d]thiazole-5-carboxamide], the MIC (M. ab_ATCC) is reported as > 64 mg/L and the MIC (M. tb H37Rv) is reported as 0.062 mg/L (≈ 0.177 µM).
`COc1nc2[nH]c(C(=O)NC3CC[Si]4(CCCCC4)CC3)cc2s1` [MPL-394, 2-methoxy-N-(6-silaspiro[5.5]undecan-3-yl)-4H-pyrrolo[2,3-d]thiazole-5-carboxamide] was tested, and the MIC (M. ab_ATCC) was > 64 mg/L and the MIC (M. tb H37Rv) was 0.04 mg/L (≈ 0.11 µM).
`COc1nc2[nH]c(C(=O)NC3CCC[Si](C)(C)CCC3)cc2s1` [MPL-396, N-(1,1-dimethylsilocan-5-yl)-2-methoxy-4H-pyrrolo[2,3-d]thiazole-5-carboxamide] was tested, and the MIC (M. ab_ATCC) was > 64 mg/L and the MIC (M. tb H37Rv) was 0.309 mg/L (≈ 0.879 µM).
`COc1nc2[nH]c(C(=O)NC3CC[Si](C)(C)C3)cc2s1` (centres unmarked) [MPL-403, N-(1,1-dimethylsilolan-3-yl)-2-methoxy-4H-pyrrolo[2,3-d]thiazole-5-carboxamide] was tested, and the MIC (M. ab_ATCC) was 4 mg/L (≈ 12.9 µM) and the MIC (M. tb H37Rv) was 0.809 mg/L (≈ 2.61 µM).
`C[Si]1(C)CCC(NC(=O)c2cc3sc(-c4ccccc4)nc3[nH]2)C1` (centres unmarked) [MPL-404, N-(1,1-dimethylsilolan-3-yl)-2-phenyl-4H-pyrrolo[2,3-d]thiazole-5-carboxamide] was tested, and the MIC (M. ab_ATCC) was 64 mg/L (≈ 180 µM) and the MIC (M. tb H37Rv) was 0.083 mg/L (≈ 0.233 µM).
With `COCCOc1nc2[nH]c(C(=O)NC3CC[Si]4(CCCCC4)CC3)cc2s1` [MPL-427, 2-(2-methoxyethoxy)-N-(6-silaspiro[5.5]undecan-3-yl)-4H-pyrrolo[2,3-d] thiazole-5-carboxamide] the MIC (M. ab_ATCC) was > 64 mg/L and the MIC (M. tb H37Rv) was 0.036 mg/L (≈ 0.0883 µM).
`COCc1nc2[nH]c(C(=O)NC3CC[Si]4(CCCCC4)CC3)cc2s1` [MPL-429, 2-(methoxymethyl)-N-(6-silaspiro[5.5]undecan-3-yl)-4H-pyrrolo[2,3-d]thiazole-5-carboxamide] showed an MIC (M. ab_ATCC) of 64 mg/L (≈ 169 µM) and an MIC (M. tb H37Rv) of 0.058 mg/L (≈ 0.154 µM).
For `Cc1c(C(=O)NC2CC[Si]3(CCCCC3)CC2)[nH]c2nc(-c3ccccc3)sc12` [MPL-431, 6-methyl-2-phenyl-N-(6-silaspiro[5.5]undecan-3-yl)-4H-pyrrolo[2,3-d]thiazole-5-carboxamide], the MIC (M. ab_ATCC) was > 64 mg/L and the MIC (M. tb H37Rv) was 0.021 mg/L (≈ 0.0496 µM).
Compound `COc1nc2[nH]c(C(=O)NC3CCC(C)(C)CC3)cc2s1` [MPL-456, N-(4,4-dimethylcyclohexyl)-2-methoxy-4H-pyrrolo[2,3-d]thiazole-5-carboxamide] has an MIC (M. ab_ATCC) of 1 mg/L (≈ 3.25 µM) and an MIC (M. tb H37Rv) of 0.317 mg/L (≈ 1.03 µM).
For `O=C(NC1CC[Si]2(CCCC2)CC1)c1cc2sc(OC3CC3)nc2[nH]1` [MPL-458, 2-(cyclopropoxy)-N-(5-silaspiro[4.5]decan-8-yl)-4H-pyrrolo[2,3-d]thiazole-5-carboxamide], the MIC (M. ab_ATCC) was > 64 mg/L and the MIC (M. tb H37Rv) was 0.124 mg/L (≈ 0.33 µM).
For `O=C(NC1CC[Si]2(CCCC2)CC1)c1cc2sc(OC3CCC3)nc2[nH]1` [MPL-459, 2-(cyclobutoxy)-N-(5-silaspiro[4.5]decan-8-yl)-4H-pyrrolo[2,3-d]thiazole-5-carboxamide], the MIC (M. ab_ATCC) was > 64 mg/L and the MIC (M. tb H37Rv) was 0.0593 mg/L (≈ 0.152 µM).
`C[Si]1(C)CCCC(NC(=O)c2cc3sc(OC4CC4)nc3[nH]2)CC1` (centres unmarked) [MPL-472, 2-(cyclopropoxy)-N-(1,1-dimethylsilepan-4-yl)-4H-pyrrolo[2,3-d]thiazole-5-carboxamide] was tested, and the MIC (M. ab_ATCC) was > 64 mg/L and the MIC (M. tb H37Rv) was 0.06 mg/L (≈ 0.165 µM).
In the case of `C[Si]1(C)CCC(NC(=O)c2cc3sc(C4CCCC4)nc3[nH]2)CC1` [MPL-474, 2-cyclopentyl-N-(1,1-dimethylsilinan-4-yl)-4H-pyrrolo[2,3-d] thiazole-5-carboxamide], the MIC (M. ab_ATCC) is reported as > 64 mg/L and the MIC (M. tb H37Rv) is reported as 0.061 mg/L (≈ 0.169 µM).
For `C[Si]1(C)CCCC(NC(=O)c2cc3sc(OC4CCC4)nc3[nH]2)CC1` (centres unmarked) [MPL-475, 2-(cyclobutoxy)-N-(1,1-dimethylsilepan-4-yl)-4H-pyrrolo[2,3-d]thiazole-5-carboxamide], the MIC (M. ab_ATCC) was 16 mg/L (≈ 42.4 µM) and the MIC (M. tb H37Rv) was 0.046 mg/L (≈ 0.122 µM).
For `C[Si]1(C)CCCC(NC(=O)c2cc3sc(OC4CCCC4)nc3[nH]2)CC1` (centres unmarked) [MPL-478, 2-(cyclopentoxy)-N-(1,1-dimethylsilepan-4-yl)-4H-pyrrolo[2,3-d]thiazole-5-carboxamide], the MIC (M. ab_ATCC) was > 64 mg/L and the MIC (M. tb H37Rv) was 0.02 mg/L (≈ 0.0511 µM).
